Measured values as given in patent publication US20100190817A1, “LARGE SUBSTITUENT, NON-PHENOLIC AMINE OPIOIDS” (RENSSELAER POLYTECHNIC INSTITUTE, priority 2008, published 2010).

How the values were obtained:
human μ opioid receptor = human μ opioid receptor (Homo sapiens, UniProt P35372); assay: Opioid receptor binding assay, [3H]DAMGO (μ)
human κ opioid receptor = human κ opioid receptor (Homo sapiens, UniProt P41145); assay: Opioid receptor binding assay, [3H]U69,593 (κ)
human δ opioid receptor = human δ opioid receptor (Homo sapiens, UniProt P41143); assay: Opioid receptor binding assay, [3H]naltrindole (δ)
mice = conditions: cited from earlier work; for duration of action (antinociception): 1 mg/kg ip in mice
guinea pig μ receptors = conditions: cited from earlier work
κ opioid receptors = conditions: cited from earlier work

Sequence of human κ opioid receptor (P41145 whole entry): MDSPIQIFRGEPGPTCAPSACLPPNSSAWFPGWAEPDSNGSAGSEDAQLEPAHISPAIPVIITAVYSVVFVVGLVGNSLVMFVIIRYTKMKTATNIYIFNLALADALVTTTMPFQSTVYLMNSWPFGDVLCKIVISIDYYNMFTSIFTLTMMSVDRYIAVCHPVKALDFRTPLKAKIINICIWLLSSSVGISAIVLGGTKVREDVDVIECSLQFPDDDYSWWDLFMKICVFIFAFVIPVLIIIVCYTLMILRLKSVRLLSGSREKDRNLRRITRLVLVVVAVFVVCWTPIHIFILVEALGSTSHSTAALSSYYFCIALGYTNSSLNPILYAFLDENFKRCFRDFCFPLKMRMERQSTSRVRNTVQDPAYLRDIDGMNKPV
Sequence of human μ opioid receptor (P35372 whole entry): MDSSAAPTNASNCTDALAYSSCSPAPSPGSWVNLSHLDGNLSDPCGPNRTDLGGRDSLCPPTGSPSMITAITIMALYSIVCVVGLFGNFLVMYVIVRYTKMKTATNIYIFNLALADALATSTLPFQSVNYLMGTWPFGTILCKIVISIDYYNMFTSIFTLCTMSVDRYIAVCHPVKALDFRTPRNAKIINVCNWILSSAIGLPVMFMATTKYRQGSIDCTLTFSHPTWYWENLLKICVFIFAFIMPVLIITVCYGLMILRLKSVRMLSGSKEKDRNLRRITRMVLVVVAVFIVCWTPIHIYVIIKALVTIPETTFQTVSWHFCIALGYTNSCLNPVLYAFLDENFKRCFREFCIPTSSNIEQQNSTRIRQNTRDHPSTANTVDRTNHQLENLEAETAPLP
Sequence of human δ opioid receptor (P41143 whole entry): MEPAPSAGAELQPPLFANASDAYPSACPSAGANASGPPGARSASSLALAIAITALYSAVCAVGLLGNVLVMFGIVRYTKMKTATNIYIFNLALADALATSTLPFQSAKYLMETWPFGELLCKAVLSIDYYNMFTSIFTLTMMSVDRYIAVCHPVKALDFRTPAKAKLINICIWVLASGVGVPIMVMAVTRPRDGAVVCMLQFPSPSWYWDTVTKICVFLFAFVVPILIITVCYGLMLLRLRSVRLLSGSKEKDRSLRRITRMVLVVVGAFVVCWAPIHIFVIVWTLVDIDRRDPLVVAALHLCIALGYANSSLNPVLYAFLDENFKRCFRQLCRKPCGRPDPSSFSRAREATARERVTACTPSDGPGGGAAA

Compound	Ki (human μ opioid receptor)	Ki (human κ opioid receptor)	Ki (human δ opioid receptor)	duration of action (antinociception) (mice)	antinociception activity (mice; studies in vivo)	affinity for μ opioid receptors (guinea pig μ receptors)	affinity for κ opioid receptors (κ opioid receptors)
CC1C2Cc3ccc(C(=O)NCCc4ccc(-c5cccc(N(C)C)c5)cc4)cc3C1(C)CCN2CC1CC1 (centres unmarked) [SJJ-B-074c]	0.18 ± 0.055 nM	0.26 ± 0.022 nM	2.5 ± 0.17 nM				
CC1C2Cc3ccc(C(=O)NCCc4ccc(-c5ccc(NC(=O)OC(C)(C)C)cc5)cc4)cc3C1(C)CCN2CC1CC1 (centres unmarked) [SJJ-C-027b]	0.32 ± 0.015 nM	3.4 ± 0.32 nM	3.1 ± 0.34 nM				
CC1C2Cc3ccc(C(=O)NCCc4ccc(-c5ccc(CN(C)C)cc5)cc4)cc3C1(C)CCN2CC1CC1 (centres unmarked) [SJJ-C-013b]	0.094 ± 0.0054 nM	1.9 ± 0.014 nM	3.7 ± 0.15 nM				
C[C@H]1[C@H]2Cc3ccc(O)cc3[C@]1(C)CCN2CC1CC1 [cyclazocine]				2 h			
C[C@H]1C2Cc3ccc(C(N)=O)cc3[C@@]1(C)CCN2CC1CC1 [Example 8-CAC, 8-carboxamidocyclazocine]				15 h	high antinociception activity	high affinity	high affinity
CC1C2Cc3ccc(C(=O)NCCc4ccc(-c5ccc(N)cc5)cc4)cc3C1(C)CCN2CC1CC1 (centres unmarked) [SJJ-B-112g]	0.0014 ± 0.0001 nM	0.39 ± 0.0085 nM	1.5 ± 0.078 nM				
